One assay deals with HLA-A*0201 (Homo sapiens, UniProt P04439, D140Y/D185E/D98H/E176V/E277Q/G131W/G231S/I119V/I121R/I166T/I218V/L300P/L318F/N151K/N90K/P208A/P217A/Q86G/Q94H/R138H/R169H/T345S). Kind of assay: ED50 (M). From the text: Table printed on a drawing sheet, Figure 27B
Head of the field: ED50 (M)

Assay [1] concerns T cell lines specific for the native epitope (PRAME425-433). Kind of assay: Cross reactivity of PRAME425-433 analogs: IFN-γ secretion from T cell line specific for native epitope. The settings on record: analog peptide at approximately 0.3 μM; normalized to native peptide. Format: cell-based. As for the experimental part:
At 7 days after the last boost, the mice were sacrificed and a suspension of splenocytes prepared at 5×10^6 […] cells/ml in complete HL-1 medium. Cells were incubated with different concentrations of peptide for 48 hours in flat-bottomed 96-well plates (200 ul/well) and for an additional 24 hours with rIL-2 at 10 U/ml added to the wells. The supernatant was harvested and the concentration of IFN-gamma assessed by standard methods such as ELISA. […] The observed affinities of the analogs are reported as % binding (compared to the positive control) and ED50s. Stability of binding as half time of dissociation. Cross reactivity with the native epitope was assessed by using the analog peptides to stimulate IFG-gamma secretion from a T cell lines specific for the native epitope, essentially as described in Example 6. The data shown in FIGS. 26-28 were generated by stimulating with analog peptide at approximately 0.3 μM. […] In some cases the reported values are the average of two determinations.

pEC50: −log10 of the molar value. Where a SMILES comes first, the peptide text is derived from it. [ ]: non-standard residue; d: D form. Nva = CCC[C@H](N)C(=O)O

Experimental findings from patent publication US20060094661A1, “NY-ESO-1 peptide analogs” (priority 2004, published 2006) are described below.

By pEC50 is commonly meant the negative decadic logarithm of the EC50, by convention in mol/L. The compound `CCC[C@H](NC(=O)CNC(=O)[C@@H](NC(=O)[C@H](CC(C)C)NC(=O)[C@H](Cc1c[nH]cn1)NC(=O)[C@H](CCC(N)=O)NC(=O)[C@H](CC(C)C)NC(=O)[C@H](CCC)NC(=O)[C@@H](N)CO)[C@@H](C)CC)C(=O)O` [50 | Prame 425-433 (L426(Nva),L433(Nva)), S(Nva)LQHLIG(Nva)] (H-S[Nva]LQHLIG[Nva]-OH; N-terminus and C-terminus assumed) showed a negative-log EC50 (pEC50) at HLA-A*0201 of 5.53.
Same read-out and setting: for `CCC[C@H](NC(=O)CNC(=O)[C@@H](NC(=O)[C@H](CC(C)C)NC(=O)[C@H](Cc1c[nH]cn1)NC(=O)[C@H](CCC(N)=O)NC(=O)[C@H](CC(C)C)NC(=O)[C@H](CCSC)NC(=O)[C@@H](N)CO)[C@@H](C)CC)C(=O)O` [56 | Prame 425-433 (L426M,L433(Nva))] (H-SMLQHLIG[Nva]-OH; N-terminus and C-terminus assumed) the value was 6.16.
As for “Lys P1 analog: PRAME425-433 analog with Lys for the Ser at the P1 position (KLLQHLIGL)”, the “IFN-γ elicited, of that of the native peptide” value in assay [1] worked out at 40%.
